In patent publication US12077531B2, “Imidazopyridinone compound” (KISSEI PHARMACEUTICAL CO., LTD., priority 2018, dated 2024):
pIC50: −log10 of the molar value. Counter-ions that a name gives are not always drawn.

Target: human PHD2184-418 (Homo sapiens (Human), UniProt Q9GZT9)
Assay: PHD2 inhibitory test (fluorescence polarization, binding between PHD2 and HIF-1α)
Conditions: for pIC50: human PHD2184-418, FITC-labeled HIF-1α556-574, 2 μM 2-oxoglutarate, 37° C. 60 minutes; for inhibition at 100 µM: read-out: inhibition rate at the compound concentration of 100 μM (numerals with *), compound concentration 100 μM
Description: Test Example 1 PHD2 Inhibitory Test
(1) Expression and Preparation of Human PHD2184-418
Human PHD2184-418 containing amino acid residues 184 to 418 of the protein represented by CAC42509 (GenBank accession ID) was expressed and prepared by the following method.
An expression construct of human PHD2184-418 containing N-terminal histidine tag was introduced into pET-30a (+) vector, and the sequence was confirmed. This vector was introduced into BL21 (DE3) strain and cultured at 37° C. in LB medium containing antibiotics. After culturing, a cell lysis solution was added to the cells, and then the cells were disrupted by sonication. The disrupted suspension was centrifuged and the supernatant was purified by Ni column to give human PHD2184-418.
Human HIF-1α556-574 (FITC-labeled HIF-1α556-574), containing N-terminal FITC-Ahx, containing amino acid residues 556 to 574 (partial peptide) of HIF-1α was used as a substrate. Using FITC-labeled HIF-1α556-574, the competitive inhibition between 2-oxoglutarate and test compounds (PHD inhibitor) was evaluated based on the change in fluorescence polarization by the following method.
An enzyme (human PHD2184-418) and the substrate were diluted with an assay buffer (pH 7.4) containing 10 mM HEPES, 150 mM NaCl, 10 μM MnCl2-4H2O, 2 μM 2-oxoglutarate and 0.05% Tween-20. Test compounds were diluted with DMSO. Test compounds and human PHD2184-418 was added to the 384-well plate (Corning, black, opaque bottom) in advance. The reaction was started by the addition of FITC-labeled HIF-1α556-574. After incubating at 37° C. for 60 minutes, fluorescence polarization (excitation wavelength: 470 nm, fluorescence wavelength: 530 nm) was measured by PHERAstar FSX (BMG Labtech). Fluorescence polarization of each well was measured, and human PHD2 binding inhibitory activity of test compounds was calculated based on the value of test compound-free group.

human PHD2184-418, sequence (Q9GZT9 184-418): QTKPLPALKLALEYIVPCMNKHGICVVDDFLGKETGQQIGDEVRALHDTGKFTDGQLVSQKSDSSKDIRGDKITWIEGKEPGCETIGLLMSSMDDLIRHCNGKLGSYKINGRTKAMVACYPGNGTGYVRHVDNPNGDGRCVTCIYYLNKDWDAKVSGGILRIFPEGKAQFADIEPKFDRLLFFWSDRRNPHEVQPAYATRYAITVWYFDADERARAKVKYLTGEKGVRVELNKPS

| SMILES | pIC50 | inhibition at 100 µM [%] |
| --- | --- | --- |
| Cc1cccnc1CN1CC[C@H](n2c(=O)n(-c3ccc(-c4ccccc4)cc3)c3cccnc32)C1 [Example 1, (S)-1-([1,1′-Biphenyl]-4-yl)-3-(1-((3-methylpyridin-2-yl)methyl)pyrrolidin-3-yl)-1,3-dihydro-2H-imidazo[4,5-b]pyridin-2-one] | 5.07 |  |
| Cn1ccnc1CN1CC[C@H](n2c(=O)n(-c3ccc(-c4ccccc4)cc3)c3cccnc32)C1 [Example 2, (S)-1-([1,1′-biphenyl]-4-yl)-3-(1-((1-methyl-1H-imidazol-2-yl)methyl)pyrrolidin-3-yl)-1,3-dihydro-2H-imidazo[4,5-b]pyridin-2-one] | 6.10 |  |
| Cn1ccnc1CN1CC[C@@H](n2c(=O)n(-c3ccc(-c4ccccc4)cc3)c3cccnc32)C1 [Example 3, (R)-1-([1,1′-Biphenyl]-4-yl)-3-(1-((1-methyl-1H-imidazol-2-yl)methyl)pyrrolidin-3-yl)-1,3-dihydro-2H-imidazo[4,5-b]pyridin-2-one] | 5.41 |  |
| O=c1n(-c2ccc(-c3ccccc3)cc2)c2cccnc2n1[C@H]1CCN(Cc2ccccn2)C1 [Example 4, (S)-1-([1,1′-Biphenyl]-4-yl)-3-(1-(pyridin-2-ylmethyl)pyrrolidin-3-yl)-1,3-dihydro-2H-imidazo[4,5-b]pyridin-2-one] | 5.46 |  |
| O=c1n(-c2ccc(-c3ccccc3)cc2)c2cccnc2n1[C@H]1CCN(Cc2c[nH]cn2)C1 [Example 5, (S)-3-(1-((1H-Imidazol-4-yl)methyl)pyrrolidin-3-yl)-1-([1,1′-biphenyl]-4-yl)-1,3-dihydro-2H-imidazo[4,5-b]pyridin-2-one] | 5.53 |  |
| Cn1cnc(CN2CC[C@H](n3c(=O)n(-c4ccc(-c5ccccc5)cc4)c4cccnc43)C2)c1 [Example 6, (S)-1-([1,1′-Biphenyl]-4-yl)-3-(1-((1-methyl-1H-imidazol-4-yl)methyl)pyrrolidin-3-yl)-1,3-dihydro-2H-imidazo[4,5-b]pyridin-2-one hydrochloride] |  | 34 |
| O=c1n(-c2ccc(-c3ccccc3)cc2)c2cccnc2n1[C@H]1CCN(Cc2ncc[nH]2)C1 [Example 7, (S)-3-(1-((1H-Imidazol-2-yl)methyl)pyrrolidin-3-yl)-1-([1,1′-biphenyl]-4-yl)-1,3-dihydro-2H-imidazo[4,5-b]pyridin-2-one] | 4.81 |  |
| O=c1n(-c2ccc(-c3ccccc3)cc2)c2cccnc2n1[C@H]1CCN(Cc2ncccc2O)C1 [Example 8, (S)-1-([1,1′-Biphenyl]-4-yl)-3-(1-((3-hydroxypyridin-2-yl)methyl)pyrrolidin-3-yl)-1,3-dihydro-2H-imidazo[4,5-b]pyridin-2-one] |  | 29 |
| O=c1n(-c2ccc(-c3ccccc3)cc2)c2cccnc2n1[C@H]1CCN(Cc2ccc(O)cn2)C1 [Example 9, (S)-1-([1,1′-Biphenyl]-4-yl)-3-(1-((5-hydroxypyridin-2-yl)methyl)pyrrolidin-3-yl)-1,3-dihydro-2H-imidazo[4,5-b]pyridin-2-one] | 5.10 |  |
| O=c1n(-c2ccc(-c3ccccc3)cc2)c2cccnc2n1[C@H]1CCN(Cc2cc(O)ccn2)C1 [Example 10, (S)-1-([1,1′-Biphenyl]-4-yl)-3-(1-((4-hydroxypyridin-2-yl)methyl)pyrrolidin-3-yl)-1,3-dihydro-2H-imidazo[4,5-b]pyridin-2-one] | 5.26 |  |

Other lines, results leading:

| pIC50 | inhibition at 100 µM [%] | SMILES |
| --- | --- | --- |
| 4.07 |  | Cn1ccnc1CN1CC[C@H](n2c(=O)n(-c3ccccc3)c3cccnc32)C1 [Example 11, (S)-3-(1-((1-Methyl-1H-imidazol-2-yl)methyl)pyrrolidin-3-yl)-1-phenyl-1,3-dihydro-2H-imidazo[4,5-b]pyridin-2-one hydrochloride] |
| 5.31 |  | Cn1ccnc1CN1CCC(n2c(=O)n(-c3ccc(-c4ccccc4)cc3)c3cccnc32)CC1 [Example 12, 1-([1,1′-Biphenyl]-4-yl)-3-(1-((1-methyl-1H-imidazol-2-yl)methyl)piperidin-4-yl)-1,3-dihydro-2H-imidazo[4,5-b]pyridin-2-one] |
| 6.92 |  | Cn1ccnc1CN1CC(n2c(=O)n(-c3ccc(-c4ccccc4)cc3)c3cccnc32)C1 [Example 13, 1-([1,1′-Biphenyl]-4-yl)-3-(1-((1-methyl-1H-imidazol-2-yl)methyl)azetidin-3-yl)-1,3-dihydro-2H-imidazo[4,5-b]pyridin-2-one] |
| 6.44 |  | Cn1ccnc1CN1CC[C@H](n2c(=O)n(-c3ccc(-c4ccc(O)cc4)cc3)c3cccnc32)C1 [Example 14, (S)-1-(4′-Hydroxy-[1,1′-biphenyl]-4-yl)-3-(1-((1-methyl-1H-imidazol-2-yl)methyl)pyrrolidin-3-yl)-1,3-dihydro-2H-imidazo[4,5-b]pyridin-2-one] |
| 4.19 |  | COC(=O)c1ccc(-n2c(=O)n([C@H]3CCN(Cc4ncccc4C)C3)c3ncccc32)cc1 [Example 15, Methyl (S)-4-(3-(1-((3-methylpyridin-2-yl)methyl)pyrrolidin-3-yl)-2-oxo-2,3-dihydro-1H-imidazo[4,5-b]pyridin-1-yl)benzoate] |
| 6.85 |  | O=C(O)c1ccnc(CN2CC[C@H](n3c(=O)n(-c4ccc(-c5ccccc5)cc4)c4cccnc43)C2)c1 [Example 16, (S)-2-((3-(1-([1,1′-Biphenyl]-4-yl)-2-oxo-1,2-dihydro-3H-imidazo[4,5-b]pyridin-3-yl)pyrrolidin-1-yl)methyl)isonicotinic acid] |
| 6.28 |  | O=C(O)c1ccc(CN2CC[C@H](n3c(=O)n(-c4ccc(-c5ccccc5)cc4)c4cccnc43)C2)nc1 [Example 17, (S)-6-((3-(1-([1,1′-Biphenyl]-4-yl)-2-oxo-1,2-dihydro-3H-imidazo[4,5-b]pyridin-3-yl)pyrrolidin-1-yl)methyl)nicotinic acid] |
| 5.71 |  | COc1ccc(-n2c(=O)n([C@H]3CCN(Cc4cc(C(=O)O)ccn4)C3)c3ncccc32)cc1 [Example 18, (S)-2-((3-(1-(4-Methoxyphenyl)-2-oxo-1,2-dihydro-3H-imidazo[4,5-b]pyridin-3-yl)pyrrolidin-1-yl)methyl)isonicotinic acid] |
| 5.20 |  | O=C(O)c1ccnc(CN2CC[C@H](n3c(=O)n(-c4ccccc4)c4cccnc43)C2)c1 [Example 19, (S)-2-((3-(2-Oxo-1-phenyl-1,2-dihydro-3H-imidazo[4,5-b]pyridin-3-yl)pyrrolidin-1-yl)methyl)isonicotinic acid] |
| 5.17 |  | Cn1ccnc1CN1CC[C@H](n2c(=O)n(-c3ccc(-c4ccccc4)cc3)c3ccc(C(=O)O)nc32)C1 [Example 20, (S)-1-([1,1′-Biphenyl]-4-yl)-3-(1-((1-methyl-1H-imidazol-2-yl)methyl)pyrrolidin-3-yl)-2-oxo-2,3-dihydro-1H-imidazo[4,5-b]pyridine-5-carboxylic acid] |
|  | 39 | Cc1cccnc1CN1CC[C@H](n2c(=O)n(-c3ccc(C(=O)O)cc3)c3cccnc32)C1 [Example 21, (S)-4-(3-(1-((3-Methylpyridin-2-yl)methyl)pyrrolidin-3-yl)-2-oxo-2,3-dihydro-1H-imidazo[4,5-b]pyridin-1-yl)benzoic acid hydrochloride] |
| 6.52 |  | Cn1c(C(=O)O)cnc1CN1CC[C@H](n2c(=O)n(-c3ccc4ccccc4c3)c3cccnc32)C1 [Example 22, (S)-1-Methyl-2-((3-(1-(naphthalen-2-yl)-2-oxo-1,2-dihydro-3H-imidazo[4,5-b]pyridin-3-yl)pyrrolidin-1-yl)methyl)-1H-imidazole-5-carboxylic acid] |
